Data reported in US20150105252A1, “SUBSTITUTED PYRAZOLES AS HERBICIDES” (E I DU PONT DE NEMOURS AND COMPANY, priority 2013, published 2015).

Tests used:
chickweed [1] = assay: Test D preemergence; type: in vivo, Stellaria media; details: for Plant response rating, Chickweed: Preemergence, scale 0 to 100
Text: (§1) Seeds of plant species selected from bluegrass (annual bluegrass, Poa annua), blackgrass (Alopecurus myosuroides), canarygrass (littleseed canarygrass, Phalaris minor), chickweed (common chickweed, Stellaria media), galium (catchweed bedstraw, Galium aparine), bromegrass, downy (downy bromegrass, Bromus tectorum), field poppy (Papaver rhoeas), field violet (Viola arvensis), foxtail, green (green foxtail, Setaria viridis), deadnettle (henbit deadnettle, Lamium amplexicaule), ryegrass, Italian (Italian ryegrass, Lolium multiflorum), kochia (Kochia scoparia), lambsquarters (Chenopodium album), oilseed rape (Brassica napus), pigweed (redroot pigweed, Amaranthus retroflexus), chamomile (scentless chamomile, Matricaria inodora), speedwell (bird's-eye speedwell, Veronica persica), barley, spring (spring barley, Hordeum vulgare), wheat, spring (spring wheat, Triticum aestivum), buckwheat, wild (wild buckwheat, Polygonum convolvulus), mustard, wild (wild mustard, Sinapis arvensis), oat, wild (wild oat, Avena fatua), radish, wild (wild radish, Raphanus raphanistrum), windgrass (Apera spica-venti), Russian thistle (Salsola kali), barley, winter (winter barley, Hordeum vulgare), and wheat, winter (winter wheat, Triticum aestivum) were planted into a silt loam soil and treated preemergence with test chemicals formulated in a non-phytotoxic solvent mixture which included a surfactant.
(§2) At the same time, these species were planted in pots containing Redi-Earth® planting medium (Scotts Company, 14111 Scottslawn Road, Marysville, Ohio 43041) comprising spaghnum peat moss, vermiculite, wetting agent and starter nutrients and treated with postemergence applications of the test chemicals formulated in the same manner. Plants ranged in height from 2 to 18 cm (1- to 4-leaf stage). Treated plants and controls were maintained in a controlled growth environment for 14 to 21 days after which time all species were compared to controls and visually evaluated. Plant response ratings, summarized in Table D, are based on a scale of 0 to 100 where 0 is no effect and 100 is complete control. A dash (-) response means no test result.

deadnettle [2] = assay: Test D postemergence; type: in vivo, Lamium amplexicaule; details: scale 0 to 100
Summary of the method: (§3)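 Visual injury scored 0–100 (0 none, 100 complete control) against controls 14–21 days after treatment in a controlled growth environment. Chemicals were formulated in a non-phytotoxic solvent mixture containing surfactant, applied to silt loam soil preemergence or to 1- to 4-leaf plants postemergence.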

blackgrass [3] = assay: Test D preemergence; type: in vivo, Alopecurus myosuroides; details: for Plant response rating, Blackgrass: Preemergence, scale 0 to 100
Summary of the method: as §3

blackgrass [4] = assay: Test D postemergence; type: in vivo, Alopecurus myosuroides; details: scale 0 to 100
Summary of the method: as §3

chickweed [5] = assay: Test D postemergence; type: in vivo, Stellaria media; details: scale 0 to 100
Text: as §1, §2

oilseed rape = assay: Test D preemergence; type: in vivo, Brassica napus; details: for Plant response rating, Oilseed Rape: Preemergence, scale 0 to 100
Text: as §1, §2

ducksalad = assay: Test C flooded paddy test; type: in vivo, Heteranthera limosa; details: Flood
Summary of the method: (§4)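 Pots were flooded to 3 cm above the soil surface at treatment, compound applied directly to the paddy water, and that depth held throughout. Plants were kept in a greenhouse for 13 to 15 days, then visually rated against untreated controls.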

pigweed = assay: Test D postemergence; type: in vivo, Amaranthus retroflexus; details: scale 0 to 100
Text: as §1, §2

barnyardgrass = assay: Test C flooded paddy test; type: in vivo, Echinochloa crus-galli; details: Flood
Summary of the method: as §4

wheat, winter = assay: Test D preemergence; type: in vivo, Triticum aestivum; details: for Plant response rating, Wheat, Winter: Preemergence, scale 0 to 100
Summary of the method: as §3

wheat, spring = assay: Test D preemergence; type: in vivo, Triticum aestivum; details: for Plant response rating, Wheat, Spring: Preemergence, scale 0 to 100
Summary of the method: as §3

radish, wild = assay: Test D preemergence; type: in vivo, Raphanus raphanistrum; details: for Plant response rating, Radish, Wild: Preemergence, scale 0 to 100
Summary of the method: as §3

sedge, umbrella = assay: Test C flooded paddy test; type: in vivo, Cyperus difformis; details: Flood
Summary of the method: as §4

rice = assay: Test C flooded paddy test; type: in vivo, Oryza sativa; details: Flood
Summary of the method: as §4

speedwell = assay: Test D postemergence; type: in vivo, Veronica persica; details: scale 0 to 100
Summary of the method: as §3

bromegrass, downy = assay: Test D preemergence; type: in vivo, Bromus tectorum; details: for Plant response rating, Bromegrass, Downy: Preemergence, scale 0 to 100
Summary of the method: as §3

bluegrass = assay: Test D postemergence; type: in vivo, Poa annua; details: scale 0 to 100
Summary of the method: as §3

foxtail, green = assay: Test D preemergence; type: in vivo, Setaria viridis; details: for Plant response rating, Foxtail, Green: Preemergence, scale 0 to 100
Summary of the method: as §3

deadnettle [6] = assay: Test D preemergence; type: in vivo, Lamium amplexicaule; details: for Plant response rating, Deadnettle: Preemergence, scale 0 to 100
Summary of the method: as §3

[7] = 16 g ai/ha, taken as preemergence
[8] = 31 g ai/ha, scale 0 to 100 (0 no effect, 100 complete control)
[9] = 62 g ai/ha, scale 0 to 100 (0 no effect, 100 complete control)

For `CCc1cc(C(=O)NOC(C)C)nn1Cc1cccc(OC(F)(F)F)c1` [Compound 70], the “Plant response rating (scale 0 to 100), Chickweed” value (chickweed [1]; [7]) was 0, the “Plant response rating, Chickweed” value (chickweed [1]; 31 g ai/ha) was 0 and the “Plant response rating, Chickweed” value (chickweed [1]; 62 g ai/ha) was 10. The “Plant response rating, Chickweed” value (chickweed [1]; 125 g ai/ha) was 100, the “Plant response rating, Chickweed” value (chickweed [1]; 250 g ai/ha) was 100 and the “Plant response rating, Deadnettle” value (deadnettle [2]; Postemergence, 16 g ai/ha) was 0. For the same compound, the “Deadnettle plant response rating” value (deadnettle [2]; Postemergence, 31 g ai/ha) was 10, the “Deadnettle plant response rating” value (deadnettle [2]; Postemergence, 125 g ai/ha) was 30 and the “Deadnettle plant response rating” value (deadnettle [2]; Postemergence, 250 g ai/ha) was 60. For the same compound, the “Deadnettle plant response rating” value (deadnettle [2]; postemergence, 62 g ai/ha) was 10, the “Plant response rating (scale 0 to 100), Blackgrass” value (blackgrass [3]; [7]) was 0 and the “Plant response rating, Blackgrass” value (blackgrass [3]; 31 g ai/ha) was 0. For the same compound, the “Plant response rating, Blackgrass” value (blackgrass [3]; 62 g ai/ha) was 5, the “Plant response rating, Blackgrass” value (blackgrass [3]; 125 g ai/ha) was 10 and the “Plant response rating, Blackgrass” value (blackgrass [3]; 250 g ai/ha) was 30. For the same compound, the “Plant response rating, Blackgrass” value (blackgrass [4]; Postemergence, 16 g ai/ha) was 0, the “Blackgrass plant response rating” value (blackgrass [4]; Postemergence, 31 g ai/ha) was 0 and the “Blackgrass plant response rating” value (blackgrass [4]; Postemergence, 125 g ai/ha) was 0. The “Blackgrass plant response rating” value (blackgrass [4]; Postemergence, 250 g ai/ha) was 0, the “Blackgrass plant response rating” value (blackgrass [4]; postemergence, 62 g ai/ha) was 0 and the “Plant response rating, Chickweed” value (chickweed [5]; Postemergence, 16 g ai/ha) was 30. The “Chickweed plant response rating” value (chickweed [5]; Postemergence, 31 g ai/ha) was 30, the “Chickweed plant response rating” value (chickweed [5]; Postemergence, 125 g ai/ha) was 70 and the “Chickweed plant response rating” value (chickweed [5]; Postemergence, 250 g ai/ha) was 85. For the same compound, the “Chickweed plant response rating” value (chickweed [5]; postemergence, 62 g ai/ha) was 70, the “Plant response rating (scale 0 to 100), Oilseed Rape” value (oilseed rape; [7]) was 0 and the “Plant response rating, Oilseed Rape” value (oilseed rape; 31 g ai/ha) was 0. The “Plant response rating, Oilseed Rape” value (oilseed rape; 62 g ai/ha) was 0, the “Plant response rating, Oilseed Rape” value (oilseed rape; 125 g ai/ha) was 10 and the “Plant response rating, Oilseed Rape” value (oilseed rape; 250 g ai/ha) was 40. For the same compound, the “Plant response rating, Ducksalad” value (ducksalad; [8]) was 30, the “Plant response rating, Ducksalad” value (ducksalad; [9]) was 40 and the “Plant response rating, Ducksalad” value (ducksalad; 125 g ai/ha, scale 0 to 100) was 85. For the same compound, the “Plant response rating, Ducksalad” value (ducksalad; 250 g ai/ha, scale 0 to 100) was 85, the “Plant response rating, Pigweed” value (pigweed; Postemergence, 16 g ai/ha) was 40 and the “Pigweed plant response rating” value (pigweed; Postemergence, 31 g ai/ha) was 60. The “Pigweed plant response rating” value (pigweed; Postemergence, 125 g ai/ha) was 75, the “Pigweed plant response rating” value (pigweed; Postemergence, 250 g ai/ha) was 90 and the “Pigweed plant response rating” value (pigweed; postemergence, 62 g ai/ha) was 60. The “Plant response rating, Barnyardgrass” value (barnyardgrass; [8]) was 0, the “Plant response rating, Barnyardgrass” value (barnyardgrass; [9]) was 0 and the “Plant response rating, Barnyardgrass” value (barnyardgrass; 125 g ai/ha, scale 0 to 100) was 45. For the same compound, the “Plant response rating, Barnyardgrass” value (barnyardgrass; 250 g ai/ha, scale 0 to 100) was 65, the “Plant response rating (scale 0 to 100), Wheat, Winter” value (wheat, winter; [7]) was 0 and the “Plant response rating, Wheat, Winter” value (wheat, winter; 31 g ai/ha) was 0. The “Plant response rating, Wheat, Winter” value (wheat, winter; 62 g ai/ha) was 0, the “Plant response rating, Wheat, Winter” value (wheat, winter; 125 g ai/ha) was 0 and the “Plant response rating, Wheat, Winter” value (wheat, winter; 250 g ai/ha) was 10. For the same compound, the “Plant response rating (scale 0 to 100), Wheat, Spring” value (wheat, spring; [7]) was 0, the “Plant response rating, Wheat, Spring” value (wheat, spring; 31 g ai/ha) was 0 and the “Plant response rating, Wheat, Spring” value (wheat, spring; 62 g ai/ha) was 0. The “Plant response rating, Wheat, Spring” value (wheat, spring; 125 g ai/ha) was 10, the “Plant response rating, Wheat, Spring” value (wheat, spring; 250 g ai/ha) was 20 and the “Plant response rating (scale 0 to 100), Radish, Wild” value (radish, wild; [7]) was 0. For the same compound, the “Plant response rating, Radish, Wild” value (radish, wild; 31 g ai/ha) was 0, the “Plant response rating, Radish, Wild” value (radish, wild; 62 g ai/ha) was 0 and the “Plant response rating, Radish, Wild” value (radish, wild; 125 g ai/ha) was 100. For the same compound, the “Plant response rating, Radish, Wild” value (radish, wild; 250 g ai/ha) was 100, the “Plant response rating, Sedge, Umbrella” value (sedge, umbrella; [8]) was 75 and the “Plant response rating, Sedge, Umbrella” value (sedge, umbrella; [9]) was 75. The “Plant response rating, Sedge, Umbrella” value (sedge, umbrella; 125 g ai/ha, scale 0 to 100) was 85, the “Plant response rating, Sedge, Umbrella” value (sedge, umbrella; 250 g ai/ha, scale 0 to 100) was 90 and the “Plant response rating, Rice” value (rice; [8]) was 0. The “Plant response rating, Rice” value (rice; [9]) was 0, the “Plant response rating, Rice” value (rice; 125 g ai/ha, scale 0 to 100) was 25 and the “Plant response rating, Rice” value (rice; 250 g ai/ha, scale 0 to 100) was 50. The “Plant response rating, Speedwell” value (speedwell; Postemergence, 16 g ai/ha) was 100, the “Speedwell plant response rating” value (speedwell; Postemergence, 31 g ai/ha) was 100 and the “Speedwell plant response rating” value (speedwell; Postemergence, 125 g ai/ha) was 100. For the same compound, the “Speedwell plant response rating” value (speedwell; Postemergence, 250 g ai/ha) was 100, the “Speedwell plant response rating” value (speedwell; postemergence, 62 g ai/ha) was 100 and the “Plant response rating (scale 0 to 100), Bromegrass, Downy” value (bromegrass, downy; [7]) was 0. The “Plant response rating, Bromegrass, Downy” value (bromegrass, downy; 31 g ai/ha) was 0, the “Plant response rating, Bromegrass, Downy” value (bromegrass, downy; 62 g ai/ha) was 0 and the “Plant response rating, Bromegrass, Downy” value (bromegrass, downy; 125 g ai/ha) was 10. The “Plant response rating, Bromegrass, Downy” value (bromegrass, downy; 250 g ai/ha) was 20, the “Plant response rating, Bluegrass” value (bluegrass; Postemergence, 16 g ai/ha) was 0 and the “Bluegrass plant response rating” value (bluegrass; Postemergence, 31 g ai/ha) was 0. For the same compound, the “Bluegrass plant response rating” value (bluegrass; Postemergence, 125 g ai/ha) was 0, the “Bluegrass plant response rating” value (bluegrass; Postemergence, 250 g ai/ha) was 0 and the “Bluegrass plant response rating” value (bluegrass; postemergence, 62 g ai/ha) was 0. For the same compound, the “Plant response rating (scale 0 to 100), Foxtail, Green” value (foxtail, green; [7]) was 0, the “Plant response rating, Foxtail, Green” value (foxtail, green; 31 g ai/ha) was 0 and the “Plant response rating, Foxtail, Green” value (foxtail, green; 62 g ai/ha) was 0. For the same compound, the “Plant response rating, Foxtail, Green” value (foxtail, green; 125 g ai/ha) was 20, the “Plant response rating, Foxtail, Green” value (foxtail, green; 250 g ai/ha) was 100 and the “Plant response rating (scale 0 to 100), Deadnettle” value (deadnettle [6]; [7]) was 0. For the same compound, the “Plant response rating, Deadnettle” value (deadnettle [6]; 31 g ai/ha) was 25, the “Plant response rating, Deadnettle” value (deadnettle [6]; 62 g ai/ha) was 30 and the “Plant response rating, Deadnettle” value (deadnettle [6]; 125 g ai/ha) was 50. For the same compound, the “Plant response rating, Deadnettle” value (deadnettle [6]; 250 g ai/ha) was 100.
